For one experiment, the system named is Corynebacterium Ax20. As to the kind of experiment: Inhibition of the enzymatic activity in living cells, release of lauric acid by GC. The format is cell-based, Corynebacterium striatum Ax 20. The note with it: 0.2 μM compound, stationary phase living cells, substrate Nα-lauroyl-L-glutamine 1 mM, 1 h. The method, then: The uptake of the compounds in bacterial cells and the inhibition of the enzyme contained therein may be measured using an assay based on stationary-phase living cells. Thus, cells may be incubated along with inhibitory compound or compounds, and the substrate (i.e. the material found in sweat, which when cleaved by the enzyme forms the malodorous acids), and the release of acids may be measured at various inhibitor concentrations. By comparing IC50 values obtained with the living cells with the IC50 values obtained with the isolated enzyme, the ease of penetration of the compounds into the bacterial cells can be assessed.
In order to evaluate enzyme activity in intact cells, stationary phase living cells of Ax20 are harvested and resuspended in Buffer A to an optical density at 600 nm of 0.25. Inhibitory compounds are added at various concentrations, and after a preincubation of 15 min, the substrate (Nα-lauroyl-L-glutamine, 1 mM final concentration) is added. The samples are incubated for 1 h and then extracted with MTBE and HCl and analysed for released lauric acid using capillary GC. By comparing the samples containing compounds of the present invention with control samples with bacteria and substrate only, the inhibition (%) is calculated. By comparing the inhibitory capacity of the compounds on the isolated enzyme with the values obtained using intact cells, the relative uptake of the compounds by the cells can be assessed. From Table 2 it appears, that compounds of the present invention can cross the bacterial cell wall and cytoplasmatic membrane, and thus can have inhibitory activity in living cells.

Experiment [1] addresses T1, enzyme of Corynebacterium striatum Ax 20 (SEQ ID No. 1) (Corynebacterium striatum, UniProt Q8GGD4).
T1 construct: endogenous in cells; host or cells: Corynebacterium striatum Ax 20 (DSM 14267), wild-type cell extract
As to the kind of experiment: Enzyme inhibition, cellular extract, Nα-lauroyl-L-glutamine cleavage, fluorescamine readout. The format is biochemical, Corynebacterium striatum Ax 20 (DSM 14267). The note with it: substrate Nα-lauroyl-L-glutamine 50 μM, 10 min preincubation at 37° C., 15 min incubation, pH 7. The method, then: Cellular Extracts of Corynebacterium striatum Ax 20 (DSM 14267) are prepared by mechanical disruption and subsequent centrifugation.
The extract (50 μl ml corresponding to 0.2 ml initial cell culture) is added to 50 μl of Buffer A (Phosphate Buffer, pH 7). Various concentrations of the compounds of the present invention are added in a volume of 40 μl, and after 10 min preincubation at 37° C., the reaction is and amended with 10 μl of substrate (Nα-lauroyl-L-glutamine, final concentration 50 μM). The samples are incubated for 15 min and then the reaction is stopped by adding 75 μl of Fluorescamine (2.5 mM dissolved in Acetonitrile). The fluorescence resulting from derivatization of the released glutamine with fluorescamine is determined at an excitation wavelength of 381 nm and an emission wavelength of 470 nm.
By comparing the samples containing compounds of the present invention with control samples with enzyme and substrate only, the inhibition (%) is calculated. Alternatively, the same assay is made with a recombinantly formed enzyme produced with a strain containing an expression vector comprising a nucleic acid sequence encoding for the enzyme.

pIC50: −log10 of the molar value.

T1 sequence (Q8GGD4 2-400): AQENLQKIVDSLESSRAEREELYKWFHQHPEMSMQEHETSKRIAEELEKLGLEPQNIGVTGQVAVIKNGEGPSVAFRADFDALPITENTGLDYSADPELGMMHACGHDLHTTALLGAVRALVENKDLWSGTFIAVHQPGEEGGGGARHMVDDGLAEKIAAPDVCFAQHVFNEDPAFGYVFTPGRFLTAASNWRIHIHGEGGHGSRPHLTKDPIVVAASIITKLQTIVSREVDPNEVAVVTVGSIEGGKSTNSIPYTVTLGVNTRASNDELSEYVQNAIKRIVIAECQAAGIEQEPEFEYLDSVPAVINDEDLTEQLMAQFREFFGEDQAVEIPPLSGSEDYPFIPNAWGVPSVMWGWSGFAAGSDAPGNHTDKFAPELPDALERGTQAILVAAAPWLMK

`CC(CCc1ccccc1)CCP(=O)(O)CC(CCC(N)=O)C(=O)O` (stereo not drawn) [Compound 5c, 4-Carbamoyl-2-[hydroxy-(3-methyl-5-phenyl-pentyl)-phosphinoylmethyl]-butyric acid]: in the experiment with Corynebacterium Ax20, the “% inhibition of release of fatty acids by Corynebacterium Ax20 at a concentration of 0.2 μM” value (from here on “% inhibition of release of fatty acids”) amounted to 70.5%. Besides, the pIC50 in experiment [1] is 7.94.

Take `CC(C)CCCC(C)CCP(=O)(O)CC(CCC(N)=O)C(=O)O` (stereo not drawn) [Compound 5n, 4-Carbamoyl-2-[(3,7-dimethyl-octyl)-hydroxy-phosphinoylmethyl]-butyric acid]: the “% inhibition of release of fatty acids” value in the experiment on Corynebacterium Ax20 amounted to 69.5%. Moreover, in experiment [1], the pIC50 was 8.05. The molecule “4-Carbamoyl-2-[hydroxy-(3-phenyl-propyl)-phosphinoylmethyl]-butyric acid [Compound 5t]” had a pIC50 in experiment [1] of 6.90.

Molecule “4-Carbamoyl-2-[hydroxy-(4-isopropyl-cyclohex-1-enylmethyl)-phosphinoylmethyl]-butyric acid [Compound 5z]” had a pIC50 in experiment [1] of 7.49. On the same count and under the same terms, with “4-Carbamoyl-2-(hydroxy-naphthalen-2-ylmethyl-phosphinoylmethyl)-butyric acid [Compound 5g]” the figure was 6.86. Consider `CCCCCCCCCCP(=O)(O)CC(CCC(N)=O)C(=O)O` (stereo not drawn) [Compound 5a, 4-Carbamoyl-2-(decyl-hydroxy-phosphinoylmethyl)-butyric acid], for which the “% inhibition of release of fatty acids” value in the experiment on Corynebacterium Ax20 amounted to 60.9%. Also, in experiment [1], the pIC50 was 7.52. Turning to `CCCCCCCCP(=O)(O)CC(CCC(N)=O)C(=O)O` (stereo not drawn) [Compound 5y, 4-Carbamoyl-2-(hydroxy-octyl-phosphinoylmethyl)-butyric acid], the “% inhibition of release of fatty acids” value in the experiment with Corynebacterium Ax20 was determined as 64.9%. In experiment [1], the pIC50 is 7.75.

For “4-Carbamoyl-2-[hydroxy-(4-phenyl-butyl)-phosphinoylmethyl]-butyric acid [Compound 5x]”, in experiment [1], the pIC50 is 7.40.

The values are drawn from patent US7402576B2, “Phosphinic acid analogs of glutamate” (Givaudan SA, priority 2002, dated 2008).
